Measured values published in US20230172204A1 (BASF SE, priority 2020, published 2023).

Columns and labels:
[1] = tested on: Phakopsora pachyrhizi (F129L); assay: Protective control of soybean rust on soybeans (PHAKPA P2); type: in vivo; details: for % PHAKPA (F129L) Disease level P2 at 4 ppm: protective P2, 4 ppm; for % PHAKPA (F129L) Disease level P2 at 4 ppm / % PHAKPA (F129L) Disease level P2 at 16 ppm: soybean rust F129L; for % PHAKPA (F129L) Disease level P2 at 16 ppm: protective P2, 16 ppm
[2] = tested on: Phakopsora pachyrhizi (F129L); assay: Protective control of soybean rust on soybeans (PHAKPA P6); type: in vivo; details: for % PHAKPA (F129L) Disease level P6 at 4 ppm: protective P6, 4 ppm; for % PHAKPA (F129L) Disease level P6 at 4 ppm / % PHAKPA (F129L) Disease level P6 at 16 ppm: soybean rust F129L; for % PHAKPA (F129L) Disease level P6 at 16 ppm: protective P6, 16 ppm
[3] = P2 protective, % diseased leaf area
[4] = P6 protective, % diseased leaf area

SMILES | % PHAKPA (F129L) Disease level P2 at 4 ppm [1] | % PHAKPA (F129L) Disease level P2 at 16 ppm [1] | % PHAKPA (F129L) Disease level P6 at 4 ppm [2] | % PHAKPA (F129L) Disease level P6 at 16 ppm [2] | PHAKPA (F129L) Disease level (%) P2 at 16 ppm [1, 3] | PHAKPA (F129L) Disease level (%) P6 at 16 ppm [2, 4] | PHAKPA (F129L) Disease level (%) P2 at 4 ppm ([1]; P2 protective, 4 ppm, % diseased leaf area) | PHAKPA (F129L) Disease level (%) P6 at 4 ppm ([2]; P6 protective, 4 ppm, % diseased leaf area)
CNC(=O)/C(=N/OC)c1cccc(C)c1CO/N=C(\C)c1cccc(F)c1 [compound 85] | 1% | 0% | 0% | 0% | – | – | – | –
CNC(=O)/C(=N/OC)c1cccc(C)c1CO/N=C(\C)c1c(F)cc(Br)cc1C(F)(F)F [compound 358] | 77% | 17% | 83% | 18% | – | – | – | –
CNC(=O)/C(=N/OC)c1cccc(C)c1CO/N=C(\C)c1cccc(F)c1OC(F)(F)F [compound 354] | 17% | 2% | 21% | 4% | – | – | – | –
CNC(=O)/C(=N/OC)c1cccc(C)c1CO/N=C(\C)c1cc(C(F)(F)F)cc(F)c1F [compound 197] | 0% | 0% | 2% | 0% | – | – | – | –
CNC(=O)/C(=N/OC)c1cccc(C)c1CO/N=C(\C)c1cccc(OC)c1 [compound 79] | 21% | 2% | 44% | 4% | – | – | – | –
CO/N=C(/C(=O)OC)c1cccc(C)c1CO/N=C(\C)c1ccccc1C#N [compound 224] | 97% | 100% | 100% | 100% | – | – | – | –
CO/N=C(/C(=O)OC)c1ccccc1CO/N=C(\C)c1cc(F)ccc1F [reference compound] | – | – | – | – | 1% | 22% | – | –
CO/N=C(/C(=O)OC)c1ccccc1CO/N=C(\C)c1cccc(F)c1 [reference compound] | – | – | – | – | 90% | 80% | – | –
COC=C(C(=O)OC)c1cccc(C)c1CON=C(C)c1ccccc1OC(F)(F)F [compound 462] | 37% | 6% | 55% | 10% | – | – | – | –
CO/C=C(/C(=O)OC)c1cccc(C)c1CO/N=C(\C)c1ccc(Br)cc1C(F)(F)F [compound 445] | 15% | 1% | 30% | 2% | – | – | – | –
CNC(=O)/C(=N/OC)c1cccc(C)c1CO/N=C(\C)c1cccc(C(F)(F)F)c1F [compound 69] | 2% | 0% | 13% | 0% | – | – | – | –
CO/N=C(/C(=O)OC)c1ccccc1CO/N=C(\C)c1ccccc1 [reference compound] | – | – | – | – | 87% | 43% | – | –
CO/N=C(/C(=O)OC)c1cccc(C)c1CO/N=C(\C)c1cccc(C2CC2(Cl)Cl)c1 (centres unmarked) [compound 74] | 27% | 6% | 16% | 3% | – | – | – | –
CNC(=O)/C(=N/OC)c1cccc(C)c1CO/N=C(\C(C)=O)c1cccc(C(F)(F)F)c1 [compound 93] | 83% | 32% | 43% | 37% | – | – | – | –
CO/N=C(/C(=O)OC)c1ccccc1CO/N=C(\C)c1ccc(OC)cc1 [reference compound] | – | – | – | – | 67% | 33% | – | –
CO/N=C(/C(=O)OC)c1cccc(C)c1CO/N=C(\C)c1ccccc1C [compound 115] | 83% | 63% | 92% | 75% | – | – | – | –

SMILES | % PHAKPA (F129L) Disease level P2 at 4 ppm [1] | % PHAKPA (F129L) Disease level P2 at 16 ppm [1] | % PHAKPA (F129L) Disease level P6 at 4 ppm [2] | % PHAKPA (F129L) Disease level P6 at 16 ppm [2] | PHAKPA (F129L) Disease level (%) P2 at 16 ppm [1, 3] | PHAKPA (F129L) Disease level (%) P6 at 16 ppm [2, 4] | PHAKPA (F129L) Disease level (%) P2 at 4 ppm ([1]; P2 protective, 4 ppm, % diseased leaf area) | PHAKPA (F129L) Disease level (%) P6 at 4 ppm ([2]; P6 protective, 4 ppm, % diseased leaf area)
CNC(=O)/C(=N/OC)c1cccc(OC)c1CO/N=C(\C)c1cccc(C(F)(F)F)c1 [compound 461] | 26% | 2% | 52% | 6% | – | – | – | –
CO/N=C(/C)c1ccc(/C(C)=N/OCc2c(C)cccc2/C(=N\OC)C(=O)OC)c(OC(F)(F)F)c1 [compound 418] | 70% | 33% | 73% | 57% | – | – | – | –
CNC(=O)/C(=N/OC)c1cccc(C)c1CO/N=C(\C)c1ccc(-c2cc(C)on2)cc1 [compound 64] | 87% | 73% | 80% | 43% | – | – | – | –
CO/N=C(/C(=O)OC)c1cccc(C)c1CO/N=C(/c1ccc(F)cc1)C(F)F [Ex. 21] | 100% | 77% | 97% | 88% | – | – | – | –
CNC(=O)/C(=N/OC)c1cccc(C)c1CO/N=C(\C)c1cccc(CC2COC2)c1 [compound 161] | 100% | 100% | 100% | 90% | – | – | – | –
CNC(=O)/C(=N/OC)c1cccc(C)c1CO/N=C(\C)c1ccccc1C(C)(F)F [compound 372] | 85% | 26% | 85% | 16% | – | – | – | –
CO/N=C(/C(=O)OC)c1ccccc1CO/N=C(\C)c1cccc(C#N)c1 [reference compound] | – | – | – | – | 80% | 43% | – | –
CO/C=C(/C(=O)OC)c1cccc(C)c1CO/N=C(\C)c1cc(F)c(F)cc1CC(F)(F)F [compound 405] | 97% | 27% | 70% | 27% | – | – | – | –
CNC(=O)/C(=N/OC)c1cccc(C)c1CO/N=C(\C)c1ccccc1OC(F)(F)F [compound 184] | 42% | 4% | 16% | 1% | – | – | – | –
CO/N=C(/C(=O)OC)c1cccc(C)c1CO/N=C(\C)c1cc(Cl)c(F)c(Cl)c1 [compound 246] | 40% | 15% | 77% | 7% | – | – | – | –
COC=C(C(=O)OC)c1cccc(C)c1CON=C(C)c1cccc(C(F)(F)F)c1 [Ex. 231] | 0% | 0% | 2% | 0% | – | – | 0% | 2%
CO/N=C(/C(=O)OC)c1cccc(C)c1CO/N=C(\C)c1cc(C(F)(F)F)ccc1Cl [compound 200] | 93% | 73% | 100% | 77% | – | – | – | –
CNC(=O)/C(=N/OC)c1cccc(C)c1CO/N=C(\CC(F)(F)F)c1ccccc1C [compound 393] | 93% | 55% | 93% | 42% | – | – | – | –
CO/N=C(/C(=O)OC)c1cccc(C)c1CO/N=C(\C)c1ccc(Oc2ccc(Cl)cc2)cc1C(F)(F)F [compound 335] | 77% | 53% | 80% | 25% | – | – | – | –
CO/N=C(/C(=O)OC)c1cccc(C)c1CO/N=C(\C)c1cccc(Cl)c1C(F)(F)F [compound 421] | 100% | 33% | 87% | 57% | – | – | – | –
